According to patent US4849421A, “Anti-anxiety benzothiepino(5,4-c]pyridazines” (Yoshitomi Pharmaceutical Industries, Ltd., priority 1987, dated 1989):

What was measured:
[1] = system: bicuculline-induced tonic convulsion; test: Anti-bicuculline effect; format: in vivo, male ddY-strain mice; conditions: Mus musculus, po; mice, p.o. 1 hour before (+)bicuculline 0.6 mg/kg i.v.; tonic convulsion within 5 minutes
Description: Experiment 2: Anti-bicuculline effect:
The experiment of anti-bicuculline effect was performed according to the method described in Life Science, vol. 21, p. 1779 (1977).
Groups of 7-14 male ddY-strain mice weighing 20-28 g were used. (+)Bicuculline (0.6 mg/kg) was intraveneously administered 1 hour after the oral administration of test compound, and the ED50, 50% effective dose, was determined by observing the existence of tonic convulsion within 5 minutes.

[2] = target: benzodiazepine receptor; test: Displacement ability for benzodiazepine receptor ([3H]diazepam binding); set-up: species or system Wistar rats (cerebral cortex, crude synaptosomal fraction); conditions: tritiated diazepam 2 nM, 0° C., 20 minutes, pH 7.4, rat cerebral cortex
Description: Compound J: 8-chloro-2-(4-chlorophenyl)-5,6-dihydro-[1]benzothiepino[5,4-c]pyridazin-3(2H)-one 7-oxide Experiment 1: Displacement ability for benzodiazepine receptor:
Experiment on the specific binding for benzodiazepine receptor was performed according to the method described in Life Science, vol. 20, p. 2101 (1977).
A crude synaptosomal fraction was isolated from the cerebral cortex of 9 to 10 week-old male Wistar rats and suspended in 50 mM of Tris-hydrochloric acid buffer solution (pH 7.4) containing 120 mM of sodium chloride and 5 mM of potassium chloride.
To the synaptosomal suspension as prepared above were added various concentrations of test compounds and tritiated diazepam (final concentration: 2 nM), and the mixture was incubated at 0° C. for 20 minutes. Then the suspension was filtered through Whatman GF/B glass fiber filter. After the filter was washed with the foregoing buffer solution, the radioactivity left on the filter was measured by a liquid scintillation spectrometry.
Specific binding was determined by subtracting binding in the presence of 10^-6 M unlabelled diazepam from total binding.
The affinity of the test compounds of the present invention for benzodiazepine receptor is evaluated as an ability to displace tritiated diazepam from the binding site, and is represented as Ki value.

[3] = system: number of shock in the punished period; test: Anti-anxiety effect (anti-conflict test, Skinner-box); format: in vivo, male rats; conditions: Rattus norvegicus; rats, oral; significant increment of number of shock in the punished period; read-out: Anti-anxiety effect MED
Description: Experiment 3: Anti-anxiety effect:
The experiment was carried out by using groups of 8 male rats which were maintained at approximately 80% of their free food weights by reducing food and employing a Skinner-box equipped with lever on the side and a grid on the floor.
The rats were placed in the Skinner-box and trained to press a lever in order to obtain milk. According to this training, the rats could obtain 0.1 ml of milk once by pressing the lever twenty times (Fix-ratio 20 reinforcement schedule, FR20).
After the rats was trained to obtain milk for 10 minutes according to FR20 (this period was hereinafter referred to as unpunished period), loud noise was given to the rats for 5 minutes (this period was hereinafter referred to as punished period). In this punished period, the rats could obtain milk everytime when they pushed the lever once, and also received a foot shock (AC 100V, 0.4-0.8 mA) for 0.3 second through the grid.
According to the repeated training of the unpunished period and the punished period, the animals which continuously pushed the lever in the unpunished period and rarely pushed, it in the punished period, and had the number of shock below 10 were provided to the experiment.
After the rats were orally administered with a test compound in 0.5% methylcellulose, the unpunished period (10 minutes) and the punished period (5 minutes) were alternately performed four times to the rats. The number of push of the lever in the unpunished period in 40 minutes and the number of shock in the punished period in 20 minutes were measured, and minimum effective dose (MED, mg/kg) was determined as the dose which observable the significant increment of number of shock in the punished period with being compared to the control group.

[4] = system: righting reflex; test: Potentiation of alcoholic effect (ethanol); format: in vivo, male mice; conditions: mice, oral, 1 hour before 30% ethanol 0.1 ml/10 g i.p.; loss of righting reflex
Description: Experiment 6: Potentiation of alcoholic effect:
(§1) Groups of 14 male mice, which were set in a room kept at 26° C., were administered orally with test compound and an hour later administered intraperitoneally with 0.1 ml/10 g of 30% ethanol. The righting reflex was tested at 15 and 30 minutes after ethanol treatment. The ED50 (mg/kg) was calculated by the probit method as the dose which caused loss of righting reflex for more than 3 seconds in half the mice.

[5] = system: righting reflex; test: Potentiation of narcotic effect (hexobarbital); format: in vivo, male mice; conditions: mice, oral, 1 hour before hexobarbital 40 mg/kg i.p.; loss of righting reflex
Description: Experiment 5: Potentiation of narcotic effect:
as §1, with “40 mg/kg” for “0.1 ml/10 g”, “hexobarbital.” for “30% ethanol.”, “hexobarbital” for “ethanol”

[6] = system: muscle-relaxant effect; test: Muscle-relaxant effect (rotating rod); format: in vivo, male mice; conditions: Mus musculus; mice, oral, 1 hour; rotating rod 11 rpm, drop within 1 minute
Description: Experiment 4: Muscle-relaxant effect:
Groups of 10 male mice each were administered orally with test compounds and an hour later placed on the rotating rod (2.8 cm in diameter) turning at a speed of 11 rpm. The ED50 (mg/kg) was calculated by the probit method as the dose which caused to drop the half number of mice from the rod within 1 minute.

| Compound | ED50 [1] [mg/kg] | Ki [2] [nM] | minimal effective dose [3] [mg/kg] | Potentiation of alcoholic effect ED50 [4] [mg/kg] | Potentiation of narcotic effect ED50 [5] [mg/kg] | ED50 [6] [mg/kg] |
| --- | --- | --- | --- | --- | --- | --- |
| O=c1cc2c(nn1-c1ccc(Cl)cc1)-c1ccccc1SCC2 [Compound A, 2-(4-chlorophenyl)-5,6-dihydro-[1]benzothiepino[5,4-c]pyridazin-3(2H)-one] | 5.5 | 10 | – | – | – | – |
| O=c1cc2c(nn1-c1ccc(Cl)cc1)-c1cc(Cl)ccc1[S+]([O-])CC2 (centres unmarked) [Compound B, 10-chloro-2-(4-chlorophenyl)-5,6-dihydro-[1]benzothiepino[5,4-c]pyridazin-3(2H)-one 7-oxide] | 3.2 | 11 | – | – | – | – |
| O=c1cc2c(nn1-c1ccc(Cl)cc1)-c1ccccc1[S+]([O-])CC2 (centres unmarked) [Compound C, 2-(4-chlorophenyl)-5,6-dihydro-[1]benzothiepino[5,4-c]pyridazin-3(2H)-one 7-oxide] | 1.2 | 37 | 2.5 | 44 | 113 | 103 |
| O=C1CC2CC[S+]([O-])c3ccccc3C2=NN1c1ccc(Cl)cc1 (centres unmarked) [Compound D, 2-(4-chlorophenyl)-4,4a,5,6-tetrahydro-[1]benzothiepino[5,4-c]pyridazin-3(2H)-one 7-oxide] | 4.5 | 45 | – | – | – | – |
| O=c1cc2c(nn1-c1ccc(Cl)cc1)-c1cc(F)ccc1SCC2 [Compound E, 2-(4-chlorophenyl)-10-fluoro-5,6-dihydro[1]benzothiepino[5,4-c]pyridazin-3(2H)-one] | 2.2 | 14 | – | – | – | – |
| O=c1cc2c(nn1-c1ccc(Cl)cc1)-c1cc(F)ccc1[S+]([O-])CC2 (centres unmarked) [Compound F, 2-(4-chlorophenyl)-10-fluoro-5,6-dihydro-[1]benzothiepino[5,4-c]pyridazin-3(2H)-one 7-oxide] | 0.72 | 36 | < 5 | 117 | 110 | 107 |
| O=c1cc2c(nn1-c1ccc(Br)cc1)-c1ccccc1[S+]([O-])CC2 (centres unmarked) [Compound G, 2-(4-bromophenyl)-5,6-dihydro-[1]benzothiepino[5,4-c]pyridazin-3(2H)-one 7-oxide] | 5.9 | 34 | – | – | – | – |
| O=C1CC2CC[S+]([O-])c3ccccc3C2=NN1c1ccc(Br)cc1 (centres unmarked) [Compound H, 2-(4-bromophenyl)-4,4a,5,6-tetrahydro-[1]benzothiepino[5,4-c]pyridazin-3(2H)-one 7-oxide] | 4.5 | 44 | – | – | – | – |
| O=c1cc2c(nn1-c1ccc(F)cc1)-c1cc(F)ccc1SCC2 [Compound I, 10-fluoro-2-(4-fluorophenyl)-5,6-dihydro-[1]benzothiepino[5,4-c]pyridazin-3(2H)-one] | 6 | 43 | – | – | – | – |
| O=c1cc2c(nn1-c1ccc(Cl)cc1)-c1cccc(Cl)c1[S+]([O-])CC2 (centres unmarked) [Compound J, 8-chloro-2-(4-chlorophenyl)-5,6-dihydro-[1]benzothiepino[5,4-c]pyridazin-3(2H)-one 7-oxide] | 0.67 | 11 | < 5 | > 500 | > 200 | > 500 |
